# Key:
# LAMTOR1 = target: T1, LAMTOR1 (Mus musculus, UniProt Q9CQ22, L22A); assay: DARTS in lysate of transfected HEK293 cells, […] ACA; assay type: cell-based
# T1 construct: MYC-LAMTOR1^L22A
# [1] = target: LAMTOR1 (late endosomal/lysosomal adaptor, MAPK and MTOR activator 1) (Mus musculus, UniProt Q9CQ22); assay: dose-dependent DARTS western blot in 3T3-L1 lysate; CETSA and isothermal dose-response CETSA; assay type: biochemical
# Sequence of LAMTOR1 (late endosomal/lysosomal adaptor, MAPK and MTOR activator 1) (Q9CQ22 2-161): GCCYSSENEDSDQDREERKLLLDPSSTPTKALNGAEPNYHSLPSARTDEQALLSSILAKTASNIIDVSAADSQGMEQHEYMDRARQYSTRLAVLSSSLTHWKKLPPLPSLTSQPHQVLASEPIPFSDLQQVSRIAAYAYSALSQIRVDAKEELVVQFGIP
# T1 sequence (Q9CQ22 2-161 L22A): as the sequence (Q9CQ22 2-161) above, with L21A counted along it
smiles,measurement,setting,value
"COc1ccc(-c2cc(=O)c3c(O)cc(O)cc3o2)cc1 [ACA, 5,7-dihydroxy-4’methoxyflavone]",% increase in stability,LAMTOR1,35.7 % increase in stability
same,EC50,[1],~44 µM

# From article PMC12758200, “Inhibition of lysosomal LAMTOR1 increases autophagy by suppressing the MTORC1 pathway to ameliorate lipid accumulations in MAFLD” (Autophagy, 2025)
